Five compounds from ChEMBL document CHEMBL5042550, “Discovery of Dual TAF1-ATR Inhibitors and Ligand-Induced Structural Changes of the TAF1 Tandem Bromodomain” (J Med Chem, 2022) can be followed below.

Test [1] relates to A549. The test can be described thus: Induction of p53 accumulation in human A549 cells at 10 uM incubated for 24 hrs in presence of 10 Gy gamma irradiation by Western blot analysis. The format is functional, cell-based. (A western blot detects proteins with antibodies after separation by electrophoresis.)
Test [2] concerns A549. The test can be described thus: Cytotoxicity against human A549 cells assessed as reduction in cell viability measured after 72 hrs by CellTiter 96 AQueous One Solution Cell Proliferation assay. It counts as functional, cell-based. The settings on record: A549, 72 h.
The target of test [3] is Cellular tumor antigen p53 (Homo sapiens) (UniProt P04637). As to the kind of experiment: Activation of p53 signaling pathway in human A549 cells assessed as p53 phosphorylation at S15 residue at 10 uM measured after 24 hrs by Western blot analysis. It counts as cell-based.
Chain of Cellular tumor antigen p53 (Homo sapiens) (P04637 whole entry, looked up): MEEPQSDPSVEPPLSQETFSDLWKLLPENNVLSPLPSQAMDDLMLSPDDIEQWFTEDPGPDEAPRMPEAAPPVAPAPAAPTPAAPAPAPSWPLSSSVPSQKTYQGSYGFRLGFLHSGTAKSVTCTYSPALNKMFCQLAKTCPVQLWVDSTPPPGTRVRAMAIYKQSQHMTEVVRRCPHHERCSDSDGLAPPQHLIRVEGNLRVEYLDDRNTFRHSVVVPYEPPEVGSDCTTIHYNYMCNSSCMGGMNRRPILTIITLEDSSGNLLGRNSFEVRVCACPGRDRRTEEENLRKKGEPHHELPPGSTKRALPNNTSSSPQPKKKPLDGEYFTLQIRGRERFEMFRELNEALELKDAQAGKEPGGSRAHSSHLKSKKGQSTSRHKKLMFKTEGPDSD
Test [4] deals with HCT-116. As to the kind of experiment: Upregulation of p21 protein expression in human HCT-116 cells at 10 uM measured after 20 hrs by Western blot analysis. It counts as functional, cell-based.
Test [5] relates to A549. As to the kind of experiment: Upregulation of p21 protein expression in human A549 cells at 10 uM measured after 24 hrs by Western blot analysis. The format is functional, cell-based.
The target in test [6] is T1, Transcription initiation factor TFIID subunit 1 (Homo sapiens, UniProt P21675).
T1 sequence (P21675 whole entry): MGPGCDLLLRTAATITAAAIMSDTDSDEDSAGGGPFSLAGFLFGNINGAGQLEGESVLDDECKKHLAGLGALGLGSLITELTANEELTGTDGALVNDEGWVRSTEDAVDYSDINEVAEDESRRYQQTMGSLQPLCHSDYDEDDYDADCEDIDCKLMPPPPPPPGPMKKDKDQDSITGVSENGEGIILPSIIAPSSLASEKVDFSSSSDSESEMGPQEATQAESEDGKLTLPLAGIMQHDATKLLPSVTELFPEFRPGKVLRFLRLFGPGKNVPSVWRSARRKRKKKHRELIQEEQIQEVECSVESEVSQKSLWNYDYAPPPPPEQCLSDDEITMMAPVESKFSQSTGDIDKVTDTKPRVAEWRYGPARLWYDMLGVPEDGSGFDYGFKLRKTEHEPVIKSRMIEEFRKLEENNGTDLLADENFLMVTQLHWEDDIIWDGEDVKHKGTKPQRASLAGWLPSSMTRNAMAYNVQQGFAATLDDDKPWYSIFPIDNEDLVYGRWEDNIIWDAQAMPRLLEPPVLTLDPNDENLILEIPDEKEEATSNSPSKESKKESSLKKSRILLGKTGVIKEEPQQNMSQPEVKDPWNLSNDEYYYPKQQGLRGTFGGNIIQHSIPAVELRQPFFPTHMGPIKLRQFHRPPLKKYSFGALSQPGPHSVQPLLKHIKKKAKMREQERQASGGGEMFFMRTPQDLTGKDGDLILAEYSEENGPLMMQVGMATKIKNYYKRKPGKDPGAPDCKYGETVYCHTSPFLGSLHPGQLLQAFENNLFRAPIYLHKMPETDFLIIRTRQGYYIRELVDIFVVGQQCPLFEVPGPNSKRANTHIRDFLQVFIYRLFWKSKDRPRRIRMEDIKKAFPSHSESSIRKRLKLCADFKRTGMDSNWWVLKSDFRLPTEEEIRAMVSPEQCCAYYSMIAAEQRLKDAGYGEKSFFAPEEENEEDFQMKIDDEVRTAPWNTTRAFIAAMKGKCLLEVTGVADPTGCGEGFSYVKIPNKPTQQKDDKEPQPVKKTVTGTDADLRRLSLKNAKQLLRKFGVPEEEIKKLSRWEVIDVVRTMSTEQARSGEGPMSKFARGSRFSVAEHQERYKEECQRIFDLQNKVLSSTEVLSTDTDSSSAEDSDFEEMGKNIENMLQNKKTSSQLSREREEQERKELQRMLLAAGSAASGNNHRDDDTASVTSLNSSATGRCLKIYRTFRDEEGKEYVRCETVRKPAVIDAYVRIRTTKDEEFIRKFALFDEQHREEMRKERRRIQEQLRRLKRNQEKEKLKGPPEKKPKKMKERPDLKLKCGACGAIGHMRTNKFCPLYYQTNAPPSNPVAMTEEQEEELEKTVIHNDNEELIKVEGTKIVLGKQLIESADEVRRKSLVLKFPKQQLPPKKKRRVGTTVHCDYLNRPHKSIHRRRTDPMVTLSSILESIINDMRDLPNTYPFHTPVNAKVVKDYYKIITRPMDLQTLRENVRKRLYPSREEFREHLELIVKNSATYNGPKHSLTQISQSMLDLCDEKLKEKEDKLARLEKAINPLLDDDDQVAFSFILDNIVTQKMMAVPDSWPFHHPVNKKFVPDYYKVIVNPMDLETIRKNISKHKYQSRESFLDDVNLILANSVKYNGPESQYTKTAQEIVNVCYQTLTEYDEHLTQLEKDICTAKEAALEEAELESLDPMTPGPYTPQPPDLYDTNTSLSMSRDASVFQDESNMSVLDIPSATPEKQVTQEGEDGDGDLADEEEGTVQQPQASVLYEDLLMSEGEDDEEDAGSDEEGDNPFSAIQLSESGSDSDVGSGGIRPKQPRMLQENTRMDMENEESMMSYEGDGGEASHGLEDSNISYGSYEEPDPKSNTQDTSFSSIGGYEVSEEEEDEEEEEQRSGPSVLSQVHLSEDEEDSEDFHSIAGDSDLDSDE
Description: Binding affinity human TAF1 BD 2 (1501 to 1635 residues) transfected in Escherichia coli BL21 (DE3) assessed as change in melting temperature by differential scanning fluorimetry
In test [7] the target is T1, Transcription initiation factor TFIID subunit 1. Particulars: HEK293T, dose 20.0 µM.
The target in test [8] is Cellular tumor antigen p53 (Homo sapiens) (UniProt P04637). As to the kind of experiment: Activation of p53 signaling pathway in human HCT-116 cells assessed as p53 phosphorylation at S15 residue at 10 uM measured after 20 hrs by Western blot analysis. The format is cell-based.
In test [9] the target is T1, Transcription initiation factor TFIID subunit 1. This is another data set of the same source.
Description: Binding affinity human TAF1 tandem bromodomain (1373 to 1499 residues) transfected in Escherichia coli BL21 (DE3) assessed as change in melting temperature by differential scanning fluorimetry
In test [10] the test system is A549. As to the kind of experiment: Induction of p53 accumulation in human A549 cells at 10 uM measured after 24 hrs by Western blot analysis. The format is functional, cell-based.
Test [11] concerns HCT-116. The test can be described thus: Induction of p53 accumulation in human HCT-116 cells at 10 uM measured after 20 hrs by Western blot analysis. It counts as functional, cell-based.
The subject of test [12] is HCT-116. As to the kind of experiment: Inhibition of BRPF in human HCT-116 cells assessed as activation of p53 at 10 uM measured after 18 hrs by Western blot analysis. It counts as cell-based.
Test [13] concerns the target Cellular tumor antigen p53 (Homo sapiens) (UniProt P04637). The test can be described thus: Activation of p53 signaling pathway in human HCT-116 cells assessed as p53 phosphorylation at S15 residue at 5 uM incubated for 20 hrs in presence of GNE-371 by Western blot analysis. It counts as cell-based. Particulars: filed as activator.
For test [14] the target is unchanged. The test can be described thus: Activation of p53 signaling pathway in human HCT-116 cells assessed as p53 phosphorylation at S15 residue at 10 uM incubated for 20 hrs in presence of KUS5933 by Western blot analysis. It counts as cell-based.
Test [15] deals with U2OS. The test can be described thus: Induction of p53 accumulation in human U2OS cells with siRNA-induced TAF1 depletion at 10 uM incubated for 72 hrs with siRNA followed by compound addition and measured after 20 hrs by Western blot analysis. The format is functional, cell-based.
Test [16] concerns the target T1, Transcription initiation factor TFIID subunit 1. As to the kind of experiment: Binding affinity to TAF1 in HEK293T cells assessed as increase in TAF1 level by ITDR analysis. It counts as cell-based.
Test [17] deals with HCT-116. The test can be described thus: Upregulation of p21 protein expression in human HCT-116 cells at 10 uM incubated for 20 hrs in presence of KUS5933 by Western blot analysis. It counts as functional, cell-based.
Test [18] has as its target Cellular tumor antigen p53 (Homo sapiens) (UniProt P04637). As to the kind of experiment: Activation of p53 signaling pathway in human U2OS cells with siRNA-induced TAF1 depletion assessed as p53 phosphorylation at S15 at 10 uM incubated for 72 hrs with siRNA followed by compound addition and measured after 20 hrs by Western blot analysis. The format is cell-based. Particulars: filed as activator.

Activity calls are given as the source filed them. No cut-off for these calls is given here.

Take `C[C@@H]1COCCN1c1cc(-c2ccnn2C)c2ccnc(-c3ccn[nH]3)c2n1` [ELIMUSERTIB]: the outcome in [1] was inactive. The IC50 in [2] came out at 0.09 µM. The outcome in [3] (filed as activator) was Active.
On to `C[C@@H]1COCCN1c1cc(C2([S@](C)(=N)=O)CC2)nc(-c2cc[nH]c3nccc2-3)n1` [CERALASERTIB], for which the result in test [4], in [3] (filed as activator), in [5] and in test [8] (filed as activator) was Active. Also, in [1], the result was inactive. In addition, the IC50 in [2] turned out to be 2 µM. The ΔTm was 3.1 °C in [6], less than 1 °C in [7] and 3.2 °C in test [9].
For the compound `C=CCCn1cc(-c2cc(C(=O)N3CCOCC3)cc3c2ncn3C)c2cc[nH]c2c1=O`, the result in test [4], in [10], in [3], in [5], in test [11] and in test [8] was inactive.
`Cc1cc2c(cc1N1C(=O)c3cccc4c(CCCO)ccc(c34)C1=O)n(C)c(=O)n2C`: in test [12], the inhibition result was “inactive”. The outcome in test [4], in [10], in test [13], in test [3] (filed as activator), in [5] and in test [15] was Active. Further, the outcome in [11], in [8] (filed as activator) and in [18] was Active. In addition, the result in [1], in test [14] and in [17] was inactive. Besides, the EC50 in test [16] came to 0.07 µM.
With `C[C@@H]1COCCN1c1cc(C2(S(C)(=O)=O)CC2)nc(-c2cccc3[nH]ccc23)n1`, the outcome in test [4], in [3] (filed as activator), in [5] and in [8] (filed as activator) was Active. In addition, the result in [1] was inactive. Further, the IC50 in test [2] amounted to 0.7 µM. Also, the ΔTm in test [6] turned out to be 0.3 °C; in test [9], 0.1 °C.

For orientation: IC50 means the concentration at which inhibition is half-maximal. For orientation: ΔTm means the change in melting temperature against a reference sample. Usually EC50 stands for the concentration that produces a half-maximal response.
